Laboratory results reported in patent US12636269B2, “Compositions and methods of use of gamma-ketoaldheyde scavengers for treating, preventing or improving fibrosis of the liver” (MTI Biotech, Inc., priority 2017, dated 2026).

Columns and labels:
primary human HSC = conditions: non-cytotoxic levels; cited from earlier work
cyclooxygenase enzymes = conditions: cited from earlier work
Timp1 = test: liver mRNA expression by RT-qPCR in DIAMOND mice, Timp1; assay type: in vivo, mouse; conditions: qRT-PCR
From the text: (§1) Twelve 8-wk old male DIAMOND mice were placed on ad libitum high fat diet (Harlan—ENVIGO TD.88317) and water containing glucose (18.9% w/v) and fructose (23.1% w/v); all mice remained on this diet throughout the study protocol. At 12 weeks of age, mice were divided into two groups: 1) 2-HOBA (n=6), and 2) vehicle controls (n=6). Animals in the 2-HOBA group received 2-HOBA in drinking water (1 g/L water with glucose and fructose). The vehicle control group received water without 2-HOBA (with glucose and fructose). Body weight and food intake were measured weekly. At […] of age, all animals underwent a glucose tolerance test (GTT) and MRI imaging to assess hepatic fat. For the GTT, animals were fasted for 12 hours and then glucose (2 g/kg bw of a 100 mg/mL glucose in sterile water) was administered by oral gavage. Blood was sampled at 0, 15, 30, 45, 60, 90, and 120 minutes after glucose administration and area under the curve was calculated. […]
(§2) Liver sections were stained with hematoxylin and eosin (for scoring of steatosis, hepatocyte ballooning, and inflammation) and Sirius red (for assessment of fibrosis). […] Serum levels of glucose, alanine transaminase, and aspartate transaminase were measured. Liver mRNA expression was assessed via RT-qPCR for the following genes: Tnfa, Nlrpla, Il1b, Il18, Timp1, Colla1, ProCard, Nlrp3, Casp1, ProIl1b, Tgfb1, Bambi, Pdk4, and Gapdh. […]

Colla1 = test: liver mRNA expression by RT-qPCR in DIAMOND mice, Colla1; assay type: in vivo, mouse; conditions: qRT-PCR, not statistically significant (p=0.08)
From the text: as §1, §2

[1] = in vitro and in vivo; cited from earlier work
HepG2 cells = conditions: cited from earlier work
DIAMOND mice = test: liver histology (fibrosis, steatosis, ballooning, inflammation) in DIAMOND mice on high-fat, high-sugar diet; assay type: in vivo, mouse; conditions: for fibrosis score: Picosirius Red staining, scale of 0 to 4, 1 g/L in drinking water, 12 weeks
From the text: DIAMOND (Diet Induced Animal Model of Non-alcoholic fatty liver Disease) is a proprietary isogenic mouse strain that sequentially develops non-alcoholic fatty liver disease, non-alcoholic steatohepatitis, fibrosis, and hepatocellular carcinoma in response to a high-fat, high-sugar diet. Disease progression in the DIAMOND mice uniquely parallels human disease progression, including histopathology.
Twelve 8-wk old male DIAMOND mice were placed on ad libitum high fat diet (Harlan—ENVIGO TD.88317) and water containing glucose (18.9% w/v) and fructose (23.1% w/v); all mice remained on this diet throughout the study protocol. At 12 weeks of age, mice were divided into two groups: 1) 2-HOBA (n=6), and 2) vehicle controls (n=6). Animals in the 2-HOBA group received 2-HOBA in drinking water (1 g/L water with glucose and fructose). The vehicle control group received water without 2-HOBA (with glucose and fructose). Body weight and food intake were measured weekly. At […] of age, all animals underwent a glucose tolerance test (GTT) and MRI imaging to assess hepatic fat. For the GTT, animals were fasted for 12 hours and then glucose (2 g/kg bw of a 100 mg/mL glucose in sterile water) was administered by oral gavage. Blood was sampled at 0, 15, 30, 45, 60, 90, and 120 minutes after glucose administration and area under the curve was calculated. Animals were sacrificed at 24 weeks of age (12 weeks of 2-HOBA or vehicle treatment). Tissues and serum were collected for analysis.
Liver sections were stained with hematoxylin and eosin (for scoring of steatosis, hepatocyte ballooning, and inflammation) and Sirius red (for assessment of fibrosis). Scoring was performed in a blinded manner for steatosis, ballooning, inflammation, and necrosis using the following criterial, Steatosis (0-4): 0=<5%; 1=5-25%; 2=25-50%; 3=50-75%; 4=75-100%. Ballooning (0-3): 0=absent; 1=mild (focal involving fewer than three hepatocytes); 2=moderate (focal involving more than three hepatocytes or multifocal); 3=prominent (multifocal with more than two foci of three or more hepatocytes). Inflammation (0-4): 0=absent; 1=minimal (zero to one focus per 20× field); 2=mild (two foci); 3=moderate (three foci); 4=severe (four or more foci). Serum levels of glucose, alanine transaminase, and aspartate transaminase were measured. Liver mRNA expression was assessed via RT-qPCR for the following genes: Tnfa, Nlrpla, Il1b, Il18, Timp1, Colla1, ProCard, Nlrp3, Casp1, ProIl1b, Tgfb1, Bambi, Pdk4, and Gapdh. Two-tailed independent samples t-tests were used to compare endpoints between 2-HOBA and vehicle treated groups. Significance was set at α=0.05.

[2] = compared to vehicle treated DIAMOND mice

Question: For 15-E2-isolevuglandin [15-E2-IsoLG], which “HSC activation (α-SMA expression, MAPK activation, cytokine production)” value (primary human HSC) is on record?
Answer: promoted HSC activation

Question: Which “inhibition of cyclooxygenase enzymes” value (cyclooxygenase enzymes) does the source give for NCc1ccccc1O [2-HOBA, 2-Hydroxybenzylamine] here?
Answer: does not inhibit

Question: And the “liver Timp1 mRNA expression” value (Timp1)?
Answer: reduced

Question: What about the “Colla1 mRNA expression levels” value (Colla1) of the same compound?
Answer: tended to be lower

Question: What about the “protein and lipid adduction” value [1] of the same compound?
Answer: preventing protein and lipid adduction

Question: And the “protection against H2O2-induced cytotoxicity” value (HepG2 cells)?
Answer: dramatically protected

Question: What about the hepatic fibrosis (DIAMOND mice; DIAMOND mice) of the same compound?
Answer: attenuates

Question: And the markers of inflammation (DIAMOND mice; DIAMOND mice)?
Answer: without altering

Question: And the fibrosis score (DIAMOND mice; the remaining two treated mice)?
Answer: 1

Question: What about the fibrosis score (DIAMOND mice; three of the treated mice) of the same compound?
Answer: 0

Question: What about the “degree of hepatic steatosis” value (DIAMOND mice; [2]) of the same compound?
Answer: similar

Question: And the “degree of hepatocellular ballooning” value (DIAMOND mice; [2])?
Answer: similar

Question: And the incidence of fibrosis (DIAMOND mice; compared to vehicle treated DIAMOND mice, p=0.03)?
Answer: significantly lower
